Assays:
Type in all cases: in vivo
[1] = Descriptive sensory evaluation in sugar water (4% sucrose in drinking water); conditions: 5 ppm in sugar water (4% sucrose in drinking water), vs base solution
Protocol: Sugar water (4% sucrose in drinking water) was prepared and used as a base solution. Different amounts of traumatic acid were added to the base solution and descriptive sensory evaluations were performed (Table 1).
Sugar water (4% sucrose in drinking water) was prepared and used as a base solution. Traumatic acid and 3-dodecenedioic acid were added to the base solution and descriptive sensory evaluations were performed (Table 2).

[2] = Descriptive sensory evaluation in sweetened milk (2% fat milk with 2% sucrose); conditions: 2 ppm of each acid in sweetened milk (2% fat milk with 2% sucrose), vs base
Protocol: Sweetened milk (2% fat milk with 2% sucrose) was prepared and used as a base solution (“base”).

[3] = Comparison of sweetness and mouthfeel enhancement and off-flavor masking with analogs; conditions: 5 ppm, compared with mesaconic acid, glutaconic acid, trans-β-Hydromuconic acid, e-oct-4ene-1, 8-dioic acid
[4] = Descriptive sensory evaluation of traumatic acid in different applications
Protocol: Descriptive sensory evaluations were carried out using different amounts of traumatic acid in different applications.

Structure (SMILES)	Taste Evaluation [1]	Taste Evaluation [2]	sweetness and mouthfeel enhancement as well as off-flavor masking [3]	Taste Evaluation ([4]; 40 ppm in 3% Sugar + 0.05% Citric Acid Water Solution)	Taste Evaluation ([4]; 40 ppm in Water, vs same application without traumatic acid)
O=C(O)CC=CCCCCCCCC(=O)O [3-Dodecenedioic acid, 3-dodecenedioic acid]	enhanced the sweetness and mouthfeel of sugar water				
O=C(O)CCCCCCCCC(=O)O [Sebacic Acid, sebacic acid]		increased sweetness and mouthfeel of sweetened milk			
O=C(O)/C=C/CCCCCCCCC(=O)O [Traumatic acid, traumatic acid]	enhanced the sweetness and mouthfeel of sugar water	increased sweetness and mouthfeel of sweetened milk	exhibited the strongest and the longest-lasting effect	Fatty and oily	Fatty and oily
